What was measured:
[1] = Effective dose required to promote microtubule assembly at 10 uM tubulin concentration; format: functional
[2] = test system: B16; experiment: The compound was tested for cytotoxicity against B16 melanoma cells; format: functional; conditions: Mus musculus, read-out: ED50 (the source's name)

`CC(=O)O[C@H]1C(=O)[C@@]2(C)[C@H]([C@H](OC(=O)c3ccccc3)[C@]3(O)C[C@H](OC(=O)[C@H](O)[C@@H](NC(=O)c4ccccc4)c4ccccc4)C(C)=C1C3(C)C)[C@]1(OC(C)=O)CO[C@@H]1C[C@@H]2O` [PACLITAXEL] gave an ED50 [1] of 0.7 µM and an EC50 [2] of 28 nM.
For `CC(=O)O[C@H]1C(=O)[C@@]2(C)[C@H]([C@H](OC(=O)c3ccccc3)[C@]3(O)C[C@H](OC(=O)[C@H](O)[C@@H](NC(=O)c4ccccc4)c4ccc(Cl)cc4)C(C)=C1C3(C)C)[C@]1(OC(C)=O)CO[C@@H]1C[C@@H]2O`, the ED50 [1] was 1.3 µM and the EC50 [2] was 61 nM.
`CC(=O)O[C@H]1C(=O)[C@]2(C)[C@@H](O)CC3OC[C@@]3(OC(C)=O)[C@H]2[C@H](OC(=O)c2ccccc2)[C@]2(O)C[C@H](OC(=O)[C@H](O)[C@@H](NC(=O)c3ccc(Cl)cc3)c3ccccc3)C(C)=C1C2(C)C` (stereo partly specified) showed an ED50 [1] of 1.7 µM and an EC50 [2] of 43 nM.
